# From patent US11021481B2, “Substituted isoindolin-1-ones and 2,3-dihydro-1h-pyrrolo[3,4-c]pyridin-1-ones as HPK1 antagonists” (Nimbus Saturn, Inc., priority 2019, dated 2021)
# Where a name gives a salt, the structure may show the parent alone.
# Molecular target: HPK1 (Homo sapiens (Human), UniProt Q92918)
# Experiment: HPK1 biochemical enzyme assay (microfluidic mobility shift assay)
# Conditions: 1.5 nM HPK1, ATP 1 mM final, 30 min preincubation, 60 min at RT, Caliper EZ Reader; read-out: HPK1 1000UMATP caliper IC50
# Outline: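 Mobility shift readout of HPK1 activity after a 60 min RT reaction with 1 mM ATP, 1 μM substrate and 5 mM MgCl2. Enzyme/substrate mix was first exposed to compounds for 30 min, using ten-point curves topping at 3 μM final.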
# HPK1, sequence (Q92918 whole entry): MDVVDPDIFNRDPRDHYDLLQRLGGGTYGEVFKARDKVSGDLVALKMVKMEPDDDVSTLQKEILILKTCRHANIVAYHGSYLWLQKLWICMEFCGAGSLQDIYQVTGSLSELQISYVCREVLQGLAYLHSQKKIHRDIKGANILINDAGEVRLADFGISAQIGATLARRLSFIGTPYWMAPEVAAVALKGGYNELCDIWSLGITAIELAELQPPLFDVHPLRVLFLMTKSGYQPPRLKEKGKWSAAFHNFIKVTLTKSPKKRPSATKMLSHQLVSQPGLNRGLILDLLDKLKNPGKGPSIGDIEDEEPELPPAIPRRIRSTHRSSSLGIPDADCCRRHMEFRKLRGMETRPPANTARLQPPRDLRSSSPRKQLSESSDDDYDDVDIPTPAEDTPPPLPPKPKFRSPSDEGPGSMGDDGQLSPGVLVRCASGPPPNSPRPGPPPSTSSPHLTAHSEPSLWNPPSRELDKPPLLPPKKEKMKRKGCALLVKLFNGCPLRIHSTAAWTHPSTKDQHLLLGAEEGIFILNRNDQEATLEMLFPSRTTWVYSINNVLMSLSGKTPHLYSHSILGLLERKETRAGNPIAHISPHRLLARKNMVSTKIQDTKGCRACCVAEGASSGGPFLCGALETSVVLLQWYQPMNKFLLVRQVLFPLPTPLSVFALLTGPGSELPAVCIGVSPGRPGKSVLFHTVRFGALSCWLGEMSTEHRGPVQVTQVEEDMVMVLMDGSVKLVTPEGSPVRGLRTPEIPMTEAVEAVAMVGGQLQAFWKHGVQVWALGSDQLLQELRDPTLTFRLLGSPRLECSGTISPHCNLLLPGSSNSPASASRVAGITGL
row,SMILES,IC50
1,"Cc1ccn2c(-c3ccc(Nc4ccc(CN5CCOCC5)cn4)c4c3CNC4=O)cnc2c1F [I-468, 4-(8-fluoro-7-methyl-imidazo[1,2-a]pyridin-3-yl)-7-[[5-(morpholino-methyl)-2-pyridyl]amino] isoindolin-1-one]",< 100 nM
2,"CC(C)(O)[C@H]1CN(c2ccc(Nc3cnc(-c4cnc5ccccn45)c4c3C(=O)NC4)nc2)CCO1 [I-470, 7-[[5-[(2R)-2-(1-hydroxy-1-methyl-ethyl)morpholin-4-yl]-2-pyridyl]amino]-4-imidazo[1,2-a]pyridin-3-yl-2,3-dihydropyrrolo [3,4-c]pyridin-1-one]",> 1000 nM
3,"Cn1ccc2c(-c3ncc(Nc4ccc(N5CCO[C@H](C(C)(C)O)C5)cn4)c4c3CNC4=O)ccnc21 [I-471, 7-[[5-[(2S)-2-(1-hydroxy-1-methyl-ethyl)morpholin-4-yl]-2-pyridyl]amino]-4-(1-methylpyrrolo [2,3-b]pyridin-4-yl)-2,3-dihydropyrrolo [3,4-c]pyridin-1-one]",< 100 nM
4,"Cn1ccc2c(-c3ncc(Nc4cccc(N5CCC6CNCC65)n4)c4c3CNC4=O)ccnc21 (stereo not drawn) [I-472, 7-[[6-(3,3a,4,5,6,6a-hexahydro-2H-pyrrolo[2,3-c]pyrrol-1-yl)-2-pyridyl]amino]-4-(1-methylpyrrolo [2,3-b]pyridin-4-yl)-2,3-dihydropyrrolo [3,4-c]pyridin-l-one]",< 100 nM
5,"Cc1ccn2c(-c3ncc(Nc4ccc(N5CCO[C@H](C(C)(C)O)C5)cn4)c4c3CNC4=O)cnc2c1F [I-473, 4-(8-fluoro-7-methyl-imidazo[1,2-a]pyridin-3-yl)-7-[[5-[(2S)-2-(1-hydroxy-1-methyl-ethyl)morpholin-4-yl]-2-pyridyl]amino]-2,3-dihydropyrrolo [3,4-c]pyridin-1-one]",< 100 nM
6,"CC(C)(O)[C@@H]1CN(c2ccc(Nc3ccc(-c4cnc5cccnn45)c4c3C(=O)NC4)nc2)CCO1 [I-474, 7-[[5-[(2S)-2-(1-hydroxy-1-methyl-ethyl)morpholin-4-yl]-2-pyridyl]amino]4-imidazo[1,2-b]pyridazin-3-yl-isoindolin-1-one]",< 100 nM
7,"CC(C)(O)[C@@H]1CN(c2ccc(Nc3cnc(-c4cnc5c(C(F)F)cccn45)c4c3C(=O)NC4)nc2)CCO1 [I-475, 4-[8-(difluoromethyl)-imidazo[1,2-a]pyridin-3-yl]-7-[[5-[(2S)-2-(1-hydroxy-1-methyl-ethyl)morpholin-4-yl]-2-pyridyl]amino]-2,3-dihydropyrrolo [3,4-c]pyridin-1-one]",< 100 nM
8,"O=C1NCc2c(-c3cnc4cc(F)ccn34)ccc(Nc3ccc(N4CCCC(N5CCOCC5)C4)cn3)c21 (stereo not drawn) [I-476, Formic acid salt 4-(7-fluoroimidazo [1,2-a]pyridin-3-yl)-7-[[5-(3-morpholino-1-piperidyl)-2-pyridyl]amino] isoindolin-1-one]",< 100 nM
9,"O=C1NCc2c(-c3cnc4cc(F)ccn34)ccc(Nc3ccc(N4CCO[C@H](CNC5CC5)C4)cn3)c21 [I-477, 7-[[5-[(2R)-2-[(cyclopropylamino)methyl]morpholin-4-yl]-2-pyridyl]amino]-4-(7-fluoroimidazo [1,2-a]pyridin-3-yl)isoindolin-1-one]",< 100 nM
10,"O=C1NCc2c(-c3cnc4cc(F)ccn34)ccc(Nc3ccc(N4CCO[C@H](CN5CC(F)C5)C4)cn3)c21 [I-482, 7-[[5-[(2R)-2-[(3-fluoroazetidin-1-yl)methyl]mor pholin-4-yl]-2-pyridyl]amino] 4-(7-fluoroimidazo [1,2-a]pyridin-3-yl)isoindolin-1-one]",< 100 nM
11,"CC(C)(O)[C@@H]1CN(c2ccc(Nc3cnc(-c4cnc5c(F)cccn45)c4c3C(=O)NC4)nc2)CCO1 [I-483, 4-(8-fluoroimidazo [1,2-a]pyridin-3-yl)-7-[[5-[(2S)-2-(1-hydroxy-1-methyl-ethyl)morpholin-4-yl]-2-pyridyl]amino]-2,3-dihydropyrrolo [3,4-c]pyridin-1-one]",< 100 nM
12,"Cn1ccc2c(-c3ncc(Nc4ccc(N5CCO[C@H](C(C)(C)O)C5)cn4)c4c3CNC4=O)cccc21 [I-484, 7-[[5-[(2S)-2-(1-hydroxy-1-methyl-ethyl)morpholin-4-yl]-2-pyridyl]amino]-4-(1-methylindol-4-yl)-2,3-dihydropyrrolo [3,4-c]pyridin-l-one]",< 100 nM
13,"CC(C)(O)[C@@H]1CN(c2ccc(Nc3cnc(-c4cnc5ccccn45)c4c3C(=O)NC4)nc2)CCO1 [I-485, 7-[[5-[(2S)-2-(1-hydroxy-1-methyl-ethyl)morpholin-4-yl]-2-pyridyl]amino] 4-imidazo[1,2-a]pyridin-3-yl-2,3-dihydropyrrolo [3,4-c]pyridin-1-one]",< 100 nM
14,"Cc1ccn2c(-c3ccc(Nc4ccc(N5CCO[C@@H](C(C)(C)O)C5)cn4)c4c3CNC4=O)cnc2c1F [I-487, 4-(8-fluoro-7-methyl-imidazo[1,2-a]pyridin-3-yl)-7-[[5-[(2R)-2-(1-hydroxy-1-methyl-ethyl)morpholin-4-yl]-2-pyridyl]amino]isoindolin-1-one]",< 100 nM
15,"Cc1ccc2c(-c3ccc(Nc4ccc(N5CCO[C@H](C(C)(C)O)C5)cn4)c4c3CNC4=O)cnn2c1 [I-489, 7-[[5-[(2S)-2-(1-hydroxy-1-methylethyl)morpholin-4-yl]-2-pyripyl]amino]-4-(6-methylpyrazo-lo[1,5-a]pyridin-3-yl)isoindolin-1-one]",< 100 nM
16,"Cc1ccn2c(-c3ccc(Nc4ccc(N5CCO[C@H](C(C)(C)O)C5)cn4)c4c3CNC4=O)cnc2c1 [I-490, 7-[[5-[(2S)-2-(1-hydroxy-1-methylethyl)morpholin-4-yl]-2-pyridyl]amino]-4-(7-methylimidazo [1,2-a]pyridin-3-yl)isoindolin-1-one]",< 100 nM
17,"CN(CC1(O)CCCN(c2ccc(Nc3ccc(-c4cnc5cc(F)ccn45)c4c3C(=O)NC4)nc2)C1)C1CC1 (stereo not drawn) [I-491, 7-[[5-[3-[[cyclopropyl (methyl)amino]methyl]-3-hydroxy-1-piperidyl]-2-pyridyl]amino] 4-(7-fluoroimidazo [1,2-a]pyridin-3-yl)isoindolin-1-one]",< 100 nM

# Results, then the compound that gave them:
row,IC50,SMILES
1,< 100 nM,"CC(C)(O)[C@@H]1CN(c2ccc(Nc3ccc(-c4cnc5cc(C(F)F)ccn45)c4c3C(=O)NC4)nc2)CCO1 [I-492, 4-[7-(difluoromethyl)-imidazo[1,2-a]pyridin-3-yl]-7-[[5-[(2S)-2-(1-hydroxy-1-methyl-ethyl)morpholin-4-yl]-2-pyridyl]amino]isoindolin-1-one]"
2,< 100 nM,O=C1NCc2c(-c3cnc4cc(F)ccn34)ccc(Nc3cccc(N4CCC5CNCC54)n3)c21 (stereo not drawn) [I-493]
3,< 100 nM,"CN(C[C@@H]1CN(c2ccc(Nc3ccc(-c4cnc5cc(F)ccn45)c4c3C(=O)NC4)nc2)CCO1)C1CC1 [I-494, 7-[[5-[(2R)-2-[[cyclopropyl (methyl)amino]methyl]morph-olin-4-yl]-2-pyridyl]amino]-4-(7-fluoroimidazo [1,2-a]pyridin-yl)isoindolin-1-one]"
4,< 100 nM,"CN1CCOC2(CCCN(c3ccc(Nc4ccc(-c5cnc6cc(F)ccn56)c5c4C(=O)NC5)nc3)C2)C1 (stereo not drawn) [I-496, 4-(7-fluoroimidazo [1,2-a]pyridin-3-yl)-7-[[5-(4-methyl-1-oxa-4,8-diazaspiro[5.5]undecan-8-yl)-2-pyridyl]amino) isoindolin-1-one]"
5,< 100 nM,"O=C1NCc2c(-c3cnc4cc(F)ccn34)ccc(Nc3cccc(N4CC[C@H]5CNC[C@H]54)n3)c21 [I-497, 4-(7-fluoroimidazo [1,2-a]pyridin-3-yl)-7-((6-((3aS,6aS)-hexahydropy-rrolo[3,4-b]pyrrol-1(2H)-yl)pyridin-2-yl)amino)isoin-dolin-1-one]"
6,< 100 nM,"O=C1NCc2c(-c3cnc4cc(F)ccn34)ccc(Nc3cccc(N4CC[C@@H]5CNC[C@@H]54)n3)c21 [I-498, 4-(7-fluoroimidazo [1,2-a]pyridin-3-yl)-7-((6-((3aR,6aR)-hexahydropy-rrolo[3,4-b]pyrrol-1(2H)-yl)pyridin-2-yl)amino)isoin-dolin-1-one]"
7,< 100 nM,"CN(C[C@H]1CN(c2ccc(Nc3ccc(-c4cnc5cc(F)ccn45)c4c3C(=O)NC4)nc2)CCO1)C1CC1 [I-499, 7-[[5-[(2S)-2-[[cyclopropyl (methyl)amino]methyl]morpholin-4-yl]-2-pyridyl]amino] 4-(7-fluoroimidazo [1,2-a]pyridin-3-yl)isoindolin-1-one]"
8,< 100 nM,"O=C1NCc2c(-c3cnc4cc(F)ccn34)ccc(Nc3ccc(N4CCCC5(CNCCO5)C4)cn3)c21 (stereo not drawn) [I-500, 4-(7-fluoroimidazo [1,2-a]pyridin-3-yl)-7-[[5-(1-oxa-4,8-diazaspiro[5.5]undecan-8-yl)-2-pyridyl]amino] isoindolin-1-one]"
9,< 100 nM,"O=C1NCc2c(-c3cnc4cc(F)ccn34)ccc(Nc3ccc(N4CCC[C@H](N5CCOCC5)C4)cn3)c21 [I-501, (S)-4-(7-fluoroimidazo [1,2-a]pyridin-3-yl)-7-((5-(3-morpholinopip-eridin-1-yl)pyridin-2-yl)amino)isoin-dolin-1-one]"
10,< 100 nM,"O=C1NCc2c(-c3cnc4cc(F)ccn34)ccc(Nc3ccc(N4CCC[C@@H](N5CCOCC5)C4)cn3)c21 [I-502, (R)-4-(7-fluoroimidazo [1,2-a]pyridin-3-yl)-7-((5-(3-morpholinopip-eridin-1-yl)pyridin-2-yl)amino)isoin-dolin-1-one]"
11,< 100 nM,CN(C)CC1(F)CCCN(c2ccc(Nc3ccc(-c4cnc5cc(F)ccn45)c4c3C(=O)NC4)nc2)C1 (stereo not drawn) [I-503]
12,< 100 nM,"CCN(CC)Cc1nc(Nc2ccc(-c3cnc4cc(F)ccn34)c3c2C(=O)NC3)ccc1C1CCOC1 (stereo not drawn) [I-504, 7-[[6-(diethylaminomethyl)-5-tetrahydrofuran-3-yl-2-pyridyl]amino]-4-(7-fluoroimidazo [1,2-a]pyridin-3-yl)isoindolin-1-one]"
13,< 100 nM,"O=C1NCc2c(-c3cnc4cc(F)ccn34)ccc(Nc3ccc(C4CCOC4)c(CN4CCCC4)n3)c21 (stereo not drawn) [I-505, 4-(7-fluoroimidazo [1,2-a]pyridin-3-yl)-7-[[6-(pyrrolidin-1-ylmethyl)-5-tetrahydrofuran-3-yl-2-pyridyl]amino]isoindolin-1-one]"
